Source: PMC6316070 (Marine Drugs, 2018)

Experiments:
Details in all cases: human
in vitro [1] = assay: in vitro
Procedure: (§1) The in vitro cytotoxic effects of the novel compounds 1, 8, and 9 were evaluated on five human cancer cell lines using the MTT (3-(4,5-dimethylthiazol-2-yl)-2,5-diphenyltetrazolium bromide) method [32, 33, 34]. […] All cells were cultured in RPMI-1640 medium containing 10% fetal bovine serum (FBS), and kept in a humidified atmosphere containing 5% CO2 at 37 °C. […] In brief, the cell suspensions (200 μL, 5 × 10^4 cells/mL) were seeded into 96-well culture plates and kept at 37 °C for 12 h, then the sample solvents (20 μL) were added into each well and further cultured at 37 °C for 24 h. Subsequently, MTT (100 μg) was added into each well and incubated at 37 °C for 4 h. After removal of the 100 μL culture medium, the cells were lysed with 20% SDS-50% DMF (100 μL). The remaining lysates were subjected to measurements of the optical density at 595 nm with a 96-well microtiter plate reader. Reed and Muench’s method was used to calculate IC50 values [32].

in vitro [2] = assay: in vitro; remark: listed apart in the source
Procedure: as §1

in vitro [3] = assay: in vitro; remark: listed apart in the source
Procedure: as §1

in vitro [4] = assay: in vitro; remark: listed apart in the source
Procedure: as §1

in vitro [5] = assay: in vitro; remark: listed apart in the source
Procedure: as §1

Measured: IC50

CC(=O)OCC(C)=CCCC(C)(O)C1CCC(C)(O)C1C (stereo not shown) [Compound 8, Cyclonerodiol C]
> 40 µM: all assays above

CC1C(C(C)(O)CC=CC(C)(C)O)CCC1(C)O (stereo not shown) [Compound 9, Cyclonerodiol D]
> 40 µM: all assays above
